The values that follow come from US20180028617A1, “METHODS OF TREATING MILD BRAIN INJURY AND POST-TRAUMATIC STRESS DISORDER” (The Regents of the University of California, priority 2015, published 2018).

The subject of assay [1] is blood brain barrier (BBB) vascular permeability; Aquaporin 4 (AQP-4). Particulars: cited from earlier work.
Assay [2] concerns neutrophil oxidative burst in leukocytes isolated from brain tissue. The assay is described as follows: Oxidative burst (ROS, DHR 123 fluorescence by flow cytometry) in leukocytes isolated from brain tissue after mild brain injury by controlled cortical impact. The class given is in vivo, C57/B6 mice. The settings on record: for Oxidative burst in inflammatory cells following mBI (flow cytometry peak shift, FIG. 2): subcutaneous ghrelin, compared to untreated mBI, n=3 animals in each group. Here is the method:
FIG. 1 depicts principle of assaying oxidative burst within inflammatory cells. Dihydrorhodamine 123 (DHR 123) diffuses across the cell membrane. When it encounters reactive oxygen species (ROS), DHR 123 is oxidized and fluoresces green. The fluorescence is then measured and presented as arbitrary fluorescence unit (AFU), wherein higher intensity means greater oxidative burst and, therefore greater concentration of amount of ROS (See Chen, et al., Measurement of oxidative burst in neutrophils,” Methods Mol Biol., 844: 115-124 (2012); which is incorporated herein by reference in its entirety).
Ghrelin administration reduces oxidative burst in inflammatory cells following mBI. Since no well-accepted animal model exists for concussions, a very small cerebral lesion that closely mimics mBI is used as a model of mBI. C57/B6 mice anesthetized with 5% isoflurane in oxygen (1.7 L/min) are given 0.3 mg/kg buprenorphine subcutaneously for analgesia prior to infliction of the mild brain injury. Anesthesia is assessed by paw pinch reflex. After creating a burr hole through the dura with a dental drill, a lesion using a controlled cortical impactor (CCI) is used to create injury 1 mm lateral and posterior to the bregma (5.0 mm/sec at a depth of 1.0 mm).
Animals are separated into three treatment groups: 1) Sham, 2) mBI, and 3) mBI plus ghrelin. A variety of doses can be tested depending upon the particular ghrelin. Ghrelin can be obtained for example from Phoenix Pharmaceuticals, Inc. (Burlingame, Calif.). For example, 1 to 50 μg at one or more time points. As one example, treatment with subcutaneous ghrelin: 1 dose of 10 μg following mBI and additional dose 10 μg 1 hour after. Brain tissue is harvested at 2-8 hours, preferably about 6 hours post-injury. […] The fluorescence is then measured and presented as arbitrary fluorescence unit (AFU), wherein higher intensity means greater oxidative burst and, therefore greater concentration or amount of ROS. […] Oxidative burst, which is a marker for ROS, can be measured by flow cytometry (e.g., FL1 channel with 488-nm laser).

“Gly-Ser-Ser-Phe-Leu-Ser-Pro-Glu-His-Gln-Arg-Val-Gln-Gln-Arg-Lys-Glu-Ser-Lys-Lys-Pro-Pro-Ala-Lys-Leu-Gln-Pro-Arg (GSSFLSPEHQRVQQRKESKKPPAKLQPR; printed: Gly-Ser-Ser-Phe-Leu-Ser-Pro-Glu-His-Gln-Arg-Val-Gln-Gln-Arg-Lys-Glu-Ser-Lys-Lys-Pro-Pro-Ala-Lys-Leu-Gln-Pro-Arg) [ghrelin, 28-amino acid peptide neuroendocrine hormone, endogenous ligand for growth hormone secretagogue receptor; can include octanoyl acylation; obtainable from Phoenix Pharmaceuticals]”: the “Post-TBI up-regulation of Aquaporin 4 (AQP-4)” value in assay [1] is given as “prevents post-TBI up-regulation of Aquaporin 4”. In addition, the “Oxidative burst of ipsilateral whole brain following mild BI (mean fluorescence intensity)” value in assay [2] (mild BI + ghrelin (2 doses), subcutaneous 10 μg following mBI and 10 μg 1 hour after, vs 7963±2900 mild BI alone and 4624±1858 sham, p-value of 0.048, n=5) turned out to be 3257 AFU. For the same substance, the “Oxidative burst in inflammatory cells following mBI (flow cytometry peak shift, FIG. 2)” value in assay [2] was “lower oxidative burst”; in assay [2] (listed as Ghrelin) it was “reduced the oxidative burst”.
